Source: patent US4731109A, “Herbicidal 2-haloacetanilides” (Monsanto Company, priority 1982, dated 1988)

Tests used:
corn = assay: Greenhouse pre-emergence GR15/GR85 selectivity test; type: in vivo
Summary of the method: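 Active ingredient mixed into cover soil over seeded pans (pre-emergence soil incorporation), initial overhead irrigation equal to 0.64 cm rainfall, then subirrigation. Scored about 2-3 weeks after seeding; GR15 (crop) and GR85 (weed) rates in kg/ha, selectivity factor = crop GR15 / weed GR85.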

soybeans = assay: Herbicidal effect in a variety of soil types; type: in vivo
Yellow Nutsedge = assay: Greenhouse pre-emergence GR15/GR85 selectivity test; type: in vivo
Quackgrass [1] = assay: as above; type: in vivo
shattercane = assay: as above; type: in vivo; conditions: Table XIV
Summary of the method: (§1)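 Soil-incorporated pre-emergence treatment: compound (solvent or wettable powder) mixed into covering soil over seeded pans; overhead irrigation once, subirrigation thereafter; scored ~2-3 wk after seeding. SF = crop GR15/weed GR85 (kg/ha); NS non-selective.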

alexandergrass = assay: as above; type: in vivo; conditions: Table XIV
Summary of the method: as §1

fall panicum = assay: as above; type: in vivo; conditions: Table XIV
Summary of the method: as §1

seedling johnsongrass = assay: as above; type: in vivo; conditions: Table XIV
Summary of the method: as §1

Texas panicum = assay: as above; type: in vivo; conditions: Table XIV
Summary of the method: as §1

red rice = assay: as above; type: in vivo; conditions: Table XIV
Summary of the method: as §1

itchgrass = assay: as above; type: in vivo; conditions: Table XIV
Summary of the method: as §1

rape = assay: as above; type: in vivo; conditions: Table VI
Summary of the method: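 Pre-emergence soil-incorporation test: seeded pans were covered with topsoil mixed with active ingredient (in solvent or as wettable powder), overhead-irrigated (0.64 cm) or not, then subirrigated. Plants were scored about 2-3 weeks after treatment. GR15/GR85 rates are in kg/ha, and selectivity factor is crop GR15 divided by weed GR85.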

wild proso millet = assay: as above; type: in vivo, wild proso millet (panicum milicaeum); conditions: Table XIV
Summary of the method: as §1

Quackgrass [2] = assay: Herbicidal effect in a variety of soil types; type: in vivo; conditions: for selectivity factor (GR15/GR85): in soybeans
Excerpt: A further guide to the effectiveness of a chemical as a selective herbicide is the "selectivity factor" ("SF") for a herbicide in given crops and weeds. The selectivity factor is a measure of the relative degree of crop safety and weed injury and is expressed in terms of the GR15 /GR85 ratio, i.e., the GR15 rate for the crop divided by the GR85 rate for the weed, both rates in kg/ha (lb/A).
The herbicide treatments were by soil incorporation with seeds planted 0.375 in (0.95 cm) deep, with 0.25 in (0.64 cm overhead irrigation. Observations were made about three weeks after treatment. Selectivity factors are shown in parenthesis.

[3] = Drummer silty clay, Table XVII A
[4] = Drummer silty clay, Table XVII B
[5] = Drummer silty clay, Table XVII C
[6] = Wabash silty clay, Table XVII B
[7] = Wabash silty clay, Table XVII C

Compound: CCOCN(C(=O)CCl)c1c(C)cccc1C(F)(F)F [Example 1, N-(ethoxymethyl)-2'-trifluoromethyl-6'-methyl-2-chloroacetanilide]
- GR15 (corn; Table IV, Replicate #1): 0.76 Kg/Ha
- GR15 (corn; Table IV, Replicate #2): 0.76 Kg/Ha
- GR15 (corn; Table V): 2.2 Kg/Ha
- GR15 (corn; Table XII): 0.69 Kg/Ha
- GR15 (corn; Table XIII): 0.69 Kg/Ha
- GR15 (corn; corn/purple nutsedge): 0.67 kg/ha
- GR15 (soybeans; [3]): > 2.2 Kg/Ha
- GR15 (soybeans; [4]): 2.2 Kg/Ha
- GR15 (soybeans; [5]): 2.0 Kg/Ha
- GR15 (soybeans; Florida muck, Table XVII A): > 2.2 Kg/Ha
- GR15 (soybeans; Florida muck, Table XVII B): 2.2 Kg/Ha
- GR15 (soybeans; Florida muck, Table XVII C): > 2.2 Kg/Ha
- GR15 (soybeans; Florida sand, Table XVII A): 2.0 Kg/Ha
- GR15 (soybeans; Florida sand, Table XVII B): 2.2 Kg/Ha
- GR15 (soybeans; Ray silt loam, Table XVII A): 1.1 Kg/Ha
- GR15 (soybeans; Ray silt loam, Table XVII B): 2.2 Kg/Ha
- GR15 (soybeans; Ray silt loam, Table XVII C): 2.0 Kg/Ha
- GR15 (soybeans; Sarpy silty clay, Table XVII A): > 2.2 Kg/Ha
- GR15 (soybeans; Sarpy silty clay, Table XVII B): 2.2 Kg/Ha
- GR15 (soybeans; Sarpy silty clay, Table XVII C): > 2.2 Kg/Ha
- GR15 (soybeans; [6]): 2.2 Kg/Ha
- GR15 (soybeans; [7]): 2.2 Kg/Ha
- GR85 (Yellow Nutsedge; Table IV, Replicate #1): 0.20 Kg/Ha
- GR85 (Yellow Nutsedge; Table IV, Replicate #2): 0.12 Kg/Ha
- GR85 (Yellow Nutsedge; Table V): 0.10 Kg/Ha
- GR85 (Yellow Nutsedge; Table XII): 0.24 Kg/Ha
- selectivity with respect to yellow nutsedge in rice (Yellow Nutsedge; in rice): non-selective
- selectivity factor (GR15/GR85) (Yellow Nutsedge; yellow nutsedge in corn, Table IV, Replicate #1): 4
- selectivity factor (GR15/GR85) (Yellow Nutsedge; yellow nutsedge in corn, Table IV, Replicate #2): 6
- selectivity factor (GR15/GR85) (Yellow Nutsedge; yellow nutsedge in corn, Table V): 22
- selectivity factor (GR15/GR85) (Yellow Nutsedge; yellow nutsedge in corn, Table XII): 2.9
- selectivity factor (GR15/GR85) (Yellow Nutsedge; yellow nutsedge in cotton, Table XII): 8
- selectivity factor (GR15/GR85) (Yellow Nutsedge; yellow nutsedge in soybeans, Table IV, Replicate #1): 15
- selectivity factor (GR15/GR85) (Yellow Nutsedge; yellow nutsedge in soybeans, Table IV, Replicate #2): 18
- selectivity factor (GR15/GR85) (Yellow Nutsedge; yellow nutsedge in soybeans, Table V): 28
- selectivity factor (GR15/GR85) (Yellow Nutsedge; yellow nutsedge in soybeans, Table XII): 3.6
- GR85 (Quackgrass [1]; Table IV, Replicate #1): 0.18 Kg/Ha
- GR85 (Quackgrass [1]; Table IV, Replicate #2): 0.16 Kg/Ha
- GR85 (Quackgrass [1]; Table V): 0.08 Kg/Ha
- selectivity factors relative to prior art compounds (Quackgrass [1]; Table V, quackgrass and yellow nutsedge in corn and soybeans): exceedingly higher selectivity factors
- GR85 Rate (Quackgrass [1]; Table VI): 0.12 Kg/Ha
- GR85 (Quackgrass [1]; Table XIII): 0.07 Kg/Ha
- selectivity against quackgrass in wheat (Quackgrass [1]; in wheat): non-selective
- selectivity factor (GR15/GR85) (Quackgrass [1]; quackgrass in corn, Table IV, Replicate #1): 4
- selectivity factor (GR15/GR85) (Quackgrass [1]; quackgrass in corn, Table IV, Replicate #2): 5
- selectivity factor (GR15/GR85) (Quackgrass [1]; quackgrass in corn, Table V): 27.5
- selectivity factor (GR15/GR85) (Quackgrass [1]; quackgrass in corn, Table XIII): 10
- selectivity factor (GR15/GR85) (Quackgrass [1]; quackgrass in rape, Table VI): 7
- selectivity factor (GR15/GR85) (Quackgrass [1]; quackgrass in snapbeans, Table VI): 7
- selectivity factor (GR15/GR85) (Quackgrass [1]; quackgrass in soybeans, Table IV, Replicate #1): 17
- selectivity factor (GR15/GR85) (Quackgrass [1]; quackgrass in soybeans, Table IV, Replicate #2): 14
- selectivity factor (GR15/GR85) (Quackgrass [1]; quackgrass in soybeans, Table V): 35
- selectivity factor (GR15/GR85) (Quackgrass [1]; quackgrass in soybeans, Table XIII): 11.6
- GR85 Rate (shattercane): 0.28 Kg/Ha
- selectivity factor (GR15/GR85) (shattercane; in soybeans): > 4.0
- GR85 Rate (alexandergrass): 0.56 Kg/Ha
- selectivity factor (GR15/GR85) (alexandergrass; in soybeans): > 2.0
- GR85 Rate (fall panicum): < 0.07 Kg/Ha
- selectivity factor (GR15/GR85) (fall panicum; in soybeans): > 16
- GR85 Rate (seedling johnsongrass): 0.14 Kg/Ha
- selectivity factor (GR15/GR85) (seedling johnsongrass; in soybeans): > 8.0
- GR85 Rate (Texas panicum): 1.1 Kg/Ha
- selectivity factor (GR15/GR85) (Texas panicum; in soybeans): > 1.0
- GR85 Rate (red rice): 0.2 Kg/Ha
- selectivity factor (GR15/GR85) (red rice; in soybeans): > 5.5
- GR85 Rate (itchgrass): 1.1 Kg/Ha
- selectivity factor (GR15/GR85) (itchgrass; in soybeans): > 1.0
- GR15 Rate (rape): 0.85 Kg/Ha
- GR85 Rate (wild proso millet): 1.1 Kg/Ha
- selectivity factor (GR15/GR85) (wild proso millet; in soybeans): > 1.0
- GR85 (Quackgrass [2]; [3]): 0.11 Kg/Ha
- GR85 (Quackgrass [2]; [4]): 0.17 Kg/Ha
- GR85 (Quackgrass [2]; [5]): 0.13 Kg/Ha
- GR85 (Quackgrass [2]; Florida muck, Table XVII A): 0.52 Kg/Ha
- GR85 (Quackgrass [2]; Florida muck, Table XVII B): 0.78 Kg/Ha
- GR85 (Quackgrass [2]; Florida muck, Table XVII C): 0.74 Kg/Ha
- GR85 (Quackgrass [2]; Florida sand, Table XVII A): 0.2 Kg/Ha
- GR85 (Quackgrass [2]; Florida sand, Table XVII B): 0.48 Kg/Ha
- GR85 (Quackgrass [2]; Ray silt loam, Table XVII A): 0.22 Kg/Ha
- GR85 (Quackgrass [2]; Ray silt loam, Table XVII B): 0.13 Kg/Ha
- GR85 (Quackgrass [2]; Ray silt loam, Table XVII C): 0.10 Kg/Ha
- GR85 (Quackgrass [2]; Sarpy silty clay, Table XVII A): 0.28 Kg/Ha
- GR85 (Quackgrass [2]; Sarpy silty clay, Table XVII B): 0.10 Kg/Ha
- GR85 (Quackgrass [2]; Sarpy silty clay, Table XVII C): 0.13 Kg/Ha
- GR85 (Quackgrass [2]; Wabash silty clay, Table XVII A): 0.28 Kg/Ha
- GR85 (Quackgrass [2]; [6]): 0.13 Kg/Ha
- GR85 (Quackgrass [2]; [7]): 0.07 Kg/Ha
- selectivity factor (GR15/GR85) (Quackgrass [2]; [3]): 20
- selectivity factor (GR15/GR85) (Quackgrass [2]; [4]): 13
- selectivity factor (GR15/GR85) (Quackgrass [2]; [5]): 14.5
- selectivity factor (GR15/GR85) (Quackgrass [2]; Florida muck, Table XVII A): > 4.5
- selectivity factor (GR15/GR85) (Quackgrass [2]; Florida muck, Table XVII B): > 3
- selectivity factor (GR15/GR85) (Quackgrass [2]; Florida muck, Table XVII C): > 3
- selectivity factor (GR15/GR85) (Quackgrass [2]; Florida sand, Table XVII A): 10
- selectivity factor (GR15/GR85) (Quackgrass [2]; Florida sand, Table XVII B): 4.5
- selectivity factor (GR15/GR85) (Quackgrass [2]; Ray silt loam, Table XVII A): 5
- selectivity factor (GR15/GR85) (Quackgrass [2]; Ray silt loam, Table XVII B): 16.5
- selectivity factor (GR15/GR85) (Quackgrass [2]; Ray silt loam, Table XVII C): 19.5
- selectivity factor (GR15/GR85) (Quackgrass [2]; Sarpy silty clay, Table XVII A): > 8
- selectivity factor (GR15/GR85) (Quackgrass [2]; Sarpy silty clay, Table XVII B): 22
- selectivity factor (GR15/GR85) (Quackgrass [2]; Sarpy silty clay, Table XVII C): > 16.5
- selectivity factor (GR15/GR85) (Quackgrass [2]; [6]): 17
- selectivity factor (GR15/GR85) (Quackgrass [2]; [7]): 31.5
